These results are taken from ChEMBL document CHEMBL3875230, “Structure-Guided Design of Novel, Potent, and Selective Macrocyclic Plasma Kallikrein Inhibitors” (ACS Med Chem Lett, 2017).

One data set deals with T1, Coagulation factor XII (Homo sapiens, UniProt P00748).
T1 sequence (P00748 whole entry): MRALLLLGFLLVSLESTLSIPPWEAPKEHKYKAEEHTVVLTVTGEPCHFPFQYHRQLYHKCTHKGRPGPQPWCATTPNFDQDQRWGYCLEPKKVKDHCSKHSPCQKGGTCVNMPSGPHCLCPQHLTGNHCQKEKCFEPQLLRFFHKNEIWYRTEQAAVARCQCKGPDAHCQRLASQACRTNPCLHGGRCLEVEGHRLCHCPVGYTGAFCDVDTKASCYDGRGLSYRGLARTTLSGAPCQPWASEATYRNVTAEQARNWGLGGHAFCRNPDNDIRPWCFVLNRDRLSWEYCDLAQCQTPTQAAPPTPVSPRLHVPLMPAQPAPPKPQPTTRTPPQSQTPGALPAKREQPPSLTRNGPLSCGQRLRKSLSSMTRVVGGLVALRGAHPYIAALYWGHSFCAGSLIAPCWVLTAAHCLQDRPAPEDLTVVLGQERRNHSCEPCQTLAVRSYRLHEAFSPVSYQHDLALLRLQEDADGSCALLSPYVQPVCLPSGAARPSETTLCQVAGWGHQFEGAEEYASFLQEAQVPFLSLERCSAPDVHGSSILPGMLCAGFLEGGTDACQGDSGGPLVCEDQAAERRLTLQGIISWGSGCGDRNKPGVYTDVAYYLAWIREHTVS
The data set is described as follows: Inhibition of factor 12a (unknown origin) using D-Pro-Phe-Arg-pNA as substrate preincubated for 30 mins followed by substrate addition.

The target of another data set is Prothrombin (Homo sapiens, UniProt P00734). The data set is described as follows: Inhibition of alpha-thrombin (unknown origin) using D-Phe-Pip-Arg-pNA as substrate preincubated for 30 mins followed by substrate addition.
Data set [1] addresses Tissue-type plasminogen activator (Homo sapiens, UniProt P00750). The data set is described as follows: Inhibition of tPA (unknown origin) using Methylsulfonyl-D-Phe-Gly-Arg-pNA as substrate preincubated for 30 mins followed by substrate addition.
The nature of data set [2]: Half life in rat liver microsomes in presence of NADPH by LC/MS/MS analysis. Format: ADME. On the technique in general: Liver microsomes are vesicles of endoplasmic reticulum, rich in cytochrome P450 enzymes.
Another data set has as its target Coagulation factor X (Homo sapiens, UniProt P00742). Kind of data set: Inhibition of factor 10a (unknown origin) using N-Z-D-Arg-Gly-Arg-pNA as substrate preincubated for 30 mins followed by substrate addition.
A further data set has as its target Coagulation factor XI (Homo sapiens, UniProt P03951). The data set is described as follows: Inhibition of factor 11a (unknown origin) using S-2366 as substrate incubated for 30 mins followed by substrate addition.
The next data set has as its target Plasminogen (Homo sapiens, UniProt P00747). Kind of data set: Inhibition of Lys-plasmin (unknown origin) using Tosyl-Gly-Pro-Lys-4-nitranilide as substrate preincubated for 30 mins followed by substrate addition.
In another data set the target is Plasma kallikrein (Homo sapiens, UniProt P03952). Kind of data set: Inhibition of human plasma kallikrein using D-Pro-Phe-Arg-pNA as substrate preincubated for 30 mins followed by substrate addition. The data set is classed as cell-free.
Data set [3] is described as follows: Inhibition of bovine trypsin using S-2765 as substrate incubated for 30 mins followed by substrate addition. Details: species or system Bos taurus.
A short description of data set [4]: Apparent permeability across MDCK cells at 1 uM. Format: ADME, cell-based, Canis lupus familiaris. Particulars: dog.
Data set [5] can be described thus: Cmax in Sprague-Dawley rat plasma at 20 mg/kg administered via oral gavage measured up to 24 hrs by LC-MS/MS analysis. Details: dose 20 mg/kg, route oral. The data set is classed as ADME, organism-based.
A short description of data set [6]: Oral bioavailability in Sprague-Dawley rat plasma at 20 mg/kg administered via gavage measured up to 24 hrs by LC-MS/MS analysis. Format: ADME, organism-based.

Coagulation factor XI, sequence (P03951 19-387 limits assumed): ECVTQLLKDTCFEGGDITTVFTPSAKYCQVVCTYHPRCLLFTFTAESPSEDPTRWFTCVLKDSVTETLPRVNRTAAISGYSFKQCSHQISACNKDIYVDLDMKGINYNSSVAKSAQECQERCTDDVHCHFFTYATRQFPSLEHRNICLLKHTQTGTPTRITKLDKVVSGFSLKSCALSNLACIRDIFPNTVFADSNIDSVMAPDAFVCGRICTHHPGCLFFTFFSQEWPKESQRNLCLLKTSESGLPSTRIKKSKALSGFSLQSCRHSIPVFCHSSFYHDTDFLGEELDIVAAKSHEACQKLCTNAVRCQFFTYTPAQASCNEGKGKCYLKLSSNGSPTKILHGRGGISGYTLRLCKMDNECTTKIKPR
Coagulation factor XI, sequence (P03951 388-625 limits assumed): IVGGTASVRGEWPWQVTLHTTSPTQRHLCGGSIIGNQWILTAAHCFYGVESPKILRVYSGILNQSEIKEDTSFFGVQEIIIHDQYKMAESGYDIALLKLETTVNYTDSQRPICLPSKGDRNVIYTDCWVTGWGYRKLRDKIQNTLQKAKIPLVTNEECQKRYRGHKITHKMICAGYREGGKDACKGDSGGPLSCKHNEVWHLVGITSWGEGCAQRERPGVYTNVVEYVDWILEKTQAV
Plasminogen, sequence (P00747 97-580 limits assumed): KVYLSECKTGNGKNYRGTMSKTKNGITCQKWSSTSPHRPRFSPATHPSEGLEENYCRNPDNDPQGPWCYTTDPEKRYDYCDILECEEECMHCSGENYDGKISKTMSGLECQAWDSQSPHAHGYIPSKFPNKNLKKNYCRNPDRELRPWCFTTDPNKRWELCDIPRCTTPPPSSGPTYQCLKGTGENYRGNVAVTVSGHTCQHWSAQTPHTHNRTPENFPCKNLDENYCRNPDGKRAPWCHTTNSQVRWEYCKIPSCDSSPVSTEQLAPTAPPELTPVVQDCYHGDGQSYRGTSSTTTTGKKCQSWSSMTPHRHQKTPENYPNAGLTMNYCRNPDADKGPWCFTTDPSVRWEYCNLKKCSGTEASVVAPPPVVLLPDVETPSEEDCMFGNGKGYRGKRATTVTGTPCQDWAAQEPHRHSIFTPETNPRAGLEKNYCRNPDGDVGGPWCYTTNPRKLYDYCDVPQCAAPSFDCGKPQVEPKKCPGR
Plasminogen, sequence (P00747 581-810 limits assumed): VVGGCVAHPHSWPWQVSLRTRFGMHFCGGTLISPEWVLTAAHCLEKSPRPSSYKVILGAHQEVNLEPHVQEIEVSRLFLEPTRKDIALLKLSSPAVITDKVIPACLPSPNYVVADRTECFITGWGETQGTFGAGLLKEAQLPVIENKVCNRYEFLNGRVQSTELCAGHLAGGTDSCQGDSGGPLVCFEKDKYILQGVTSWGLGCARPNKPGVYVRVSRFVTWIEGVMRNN
Coagulation factor X, sequence (P00742 41-179 limits assumed): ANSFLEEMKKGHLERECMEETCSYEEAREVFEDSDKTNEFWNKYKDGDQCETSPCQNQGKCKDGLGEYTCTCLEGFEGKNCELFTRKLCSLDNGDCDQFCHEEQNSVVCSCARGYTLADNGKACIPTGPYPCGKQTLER
Coagulation factor X, sequence (P00742 235-488 limits assumed): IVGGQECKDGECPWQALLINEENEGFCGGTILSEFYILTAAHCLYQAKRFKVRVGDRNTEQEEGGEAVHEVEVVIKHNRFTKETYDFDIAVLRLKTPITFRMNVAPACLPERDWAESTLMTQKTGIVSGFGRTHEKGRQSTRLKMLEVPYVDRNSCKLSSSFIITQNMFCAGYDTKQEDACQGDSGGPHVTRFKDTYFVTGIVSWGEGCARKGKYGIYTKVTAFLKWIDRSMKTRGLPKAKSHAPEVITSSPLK
Tissue-type plasminogen activator, sequence (P00750 whole entry): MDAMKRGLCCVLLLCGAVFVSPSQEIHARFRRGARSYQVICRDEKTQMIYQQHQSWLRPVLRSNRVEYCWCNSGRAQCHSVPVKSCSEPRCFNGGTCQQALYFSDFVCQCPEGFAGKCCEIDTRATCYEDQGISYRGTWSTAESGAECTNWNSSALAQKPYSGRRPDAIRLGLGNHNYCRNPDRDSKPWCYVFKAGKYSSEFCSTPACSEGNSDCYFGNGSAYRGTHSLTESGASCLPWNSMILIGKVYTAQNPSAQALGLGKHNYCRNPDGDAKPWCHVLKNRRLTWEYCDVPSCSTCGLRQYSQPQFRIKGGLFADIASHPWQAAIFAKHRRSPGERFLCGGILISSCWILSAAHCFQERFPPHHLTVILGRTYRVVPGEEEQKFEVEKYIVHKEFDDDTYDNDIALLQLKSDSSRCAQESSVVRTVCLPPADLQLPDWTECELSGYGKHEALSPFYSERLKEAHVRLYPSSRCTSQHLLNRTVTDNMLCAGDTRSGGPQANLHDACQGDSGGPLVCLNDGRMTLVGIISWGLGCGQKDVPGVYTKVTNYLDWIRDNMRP
Plasma kallikrein, sequence (P03952 20-390 limits assumed): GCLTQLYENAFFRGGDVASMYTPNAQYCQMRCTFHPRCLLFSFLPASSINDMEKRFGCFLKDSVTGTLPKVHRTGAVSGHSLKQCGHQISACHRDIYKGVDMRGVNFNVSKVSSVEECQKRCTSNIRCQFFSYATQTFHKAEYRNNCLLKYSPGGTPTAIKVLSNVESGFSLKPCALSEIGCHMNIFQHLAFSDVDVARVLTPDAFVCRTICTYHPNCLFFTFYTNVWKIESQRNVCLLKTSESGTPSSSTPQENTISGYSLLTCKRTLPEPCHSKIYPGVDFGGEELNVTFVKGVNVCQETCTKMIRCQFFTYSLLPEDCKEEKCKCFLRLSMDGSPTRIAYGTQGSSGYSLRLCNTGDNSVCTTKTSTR
Plasma kallikrein, sequence (P03952 391-638 limits assumed): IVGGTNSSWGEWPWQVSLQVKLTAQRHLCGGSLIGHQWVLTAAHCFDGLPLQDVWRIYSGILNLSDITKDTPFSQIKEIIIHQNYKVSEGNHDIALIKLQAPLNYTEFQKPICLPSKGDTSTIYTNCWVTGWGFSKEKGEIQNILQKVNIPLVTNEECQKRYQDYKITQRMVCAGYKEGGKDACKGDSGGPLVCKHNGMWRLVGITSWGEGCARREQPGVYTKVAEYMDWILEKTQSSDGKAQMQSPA

In general, IC50 refers to the concentration needed to halve the response being measured. As a reminder, the half-life is the time in which the quantity being followed falls by half. Turning to `Cc1nc(N)cc2c1CNC(=O)c1cnn(c1)Cc1ccc(Cn3cccn3)cc1OCCCC=CCCO2` (mixture of isomers), the IC50 was more than 200 µM against Coagulation factor XII; more than 200 µM against Prothrombin; more than 200 µM in data set [1]; more than 200 µM at Coagulation factor X; 11.7 µM at Coagulation factor XI; 21.4 µM against Plasminogen. In addition, the IC50 against Plasma kallikrein is 0.0048 µM; in data set [3], more than 200 µM. The half-life in data set [2] is less than 5 min.

A word on the Papp: it is a coefficient for how fast a substance crosses the barrier. With `Cc1nc(N)cc2c1CNC(=O)c1cnn(c1)Cc1ccc(Cn3cccn3)cc1OCCC/C=C/CCO2`, the half-maximal inhibitory concentration (IC50) against Coagulation factor XII is more than 200 µM; at Prothrombin it was more than 200 µM; in data set [1], more than 200 µM; against Coagulation factor X it was more than 200 µM; at Coagulation factor XI, 3.61 µM; on Plasminogen, more than 200 µM. The figures for the IC50 (against Plasma kallikrein; in data set [3]) were 0.002 µM and more than 200 µM, respectively. Moreover, the apparent permeability coefficient (Papp) at 1 µM in data set [4] was less than 1 ×10⁻⁶ cm/s. Also, in data set [2], the half-life is less than 5 min.

`Cc1nc(N)cc2c1CNC(=O)c1cnn(c1)Cc1ccc(Cn3cccn3)cc1OCCCCCCO2` gave an IC50 against Plasma kallikrein of 8.31 µM.

For the compound `Cc1nc(N)cc2c1CNC(=O)c1cnn(c1)Cc1ccc(Cn3cccn3)cc1OCC/C=C\CCO2`, inhibition against Plasma kallikrein was half-maximal at 1.57 µM (IC50).

On Plasma kallikrein, `Cc1cc(N)nc2c1CNC(=O)c1cnn(c1)Cc1ccc(Cn3cccn3)cc1OCC/C=C\CCO2` showed an IC50 of more than 3000 µM.

Compound `Cc1nc(N)cc2c1CNC(=O)c1cnn(c1)Cc1ccc(Cn3cccn3)cc1OCC/C=C/CCO2` displayed an IC50 at Plasma kallikrein of 1.21 µM.

The term Cmax denotes the maximum level reached in the sampled fluid or tissue. Broadly, the bioavailability is dose-corrected exposure relative to a reference, in per cent. The low end stands for little systemic uptake, the high end for much systemic uptake. With `Cc1nc(N)ccc1CNC(=O)c1cnn(Cc2ccc(Cn3cccn3)cc2)c1`, the IC50 against Coagulation factor XII was more than 1000 µM; against Prothrombin, more than 1000 µM; in [1], more than 1000 µM; against Coagulation factor X, more than 1000 µM; at Coagulation factor XI it was 106 µM; at Plasminogen it was more than 1000 µM. Moreover, the IC50 at Plasma kallikrein is 0.0024 µM; in data set [3] it was 578 µM. The Papp at 1 µM in [4] was less than 1 ×10⁻⁶ cm/s. In addition, in data set [2], the half-life turned out to be 48 min. This compound gave a peak concentration (Cmax) in [5] of 25 ng/mL. The bioavailability in data set [6] was determined as 6%.

`Cc1cc(N)nc2c1CNC(=O)c1cnn(c1)Cc1ccc(Cn3cccn3)cc1OCC/C=C/CCO2` came in with an IC50 on Plasma kallikrein of 53.2 µM.

Take `Cc1nc(N)cc2c1CNC(=O)c1cnn(c1)Cc1ccc(Cn3cccn3)cc1OCC/C=C/CCCO2`: the IC50 on Coagulation factor XII is more than 200 µM; on Prothrombin, more than 200 µM; in [1], more than 200 µM; against Coagulation factor X, more than 200 µM; at Coagulation factor XI, 12.7 µM; against Plasminogen it was 9.97 µM. For the same compound, the figures for the IC50 (on Plasma kallikrein; in [3]) were 0.153 µM and more than 200 µM, respectively. For the same compound, the apparent permeability (Papp) at 1 µM in [4] is less than 1 ×10⁻⁶ cm/s. Besides, the half-life in data set [2] was less than 5 min.

Take `Cc1nc(N)cc2c1CNC(=O)c1cnn(c1)Cc1ccc(Cn3cccn3)cc1OCCC/C=C\CCO2`: the IC50 against Coagulation factor XII was more than 200 µM; against Prothrombin it was more than 200 µM; in [1], more than 200 µM; on Coagulation factor X, more than 200 µM; on Coagulation factor XI, 40.9 µM; against Plasminogen it was more than 200 µM. The values for the IC50 (against Plasma kallikrein; in [3]) were 0.0423 µM and more than 200 µM, respectively. The Papp at 1 µM in data set [4] was less than 1 ×10⁻⁶ cm/s. Besides, in [2], the half-life was less than 5 min.
